Series [1] is described as follows: Stability test of J1 solution (HPLC), Example 6. The format is physicochemical. How it is done: Stability of the solution containing J1 and tert-butanol:water, 1:1 (v/v), was tested. A solution comprising tert-butanol:water 1:1 (v/v) and J1 at a concentration of 1 mg/ml, was left at room temperature for 5 days.
The nature of series [2]: Dissolution rate of lyophilized J1/sucrose in 5% glucose solution (Example 1). To be noted: lyophilized 0.1 mg J1 and 0.2 mg sucrose, 0.5 ml 5% glucose solution. Type of series: physicochemical. As for the experimental part: The speed of dissolution of melphalan flufenamide hydrochloride (J1) by addition of sucrose to the freeze-drying process of J1 was tested. Sucrose is a formulation agent Generally Considered As Safe (GRAS) according to the FDA (US Food and Drug Administration).
A solution of J1 (5 mg) was made in tert-butanol:water 1:1 (5 ml). 100 μl of the solution was added to a vial containing 0.2 mg sucrose. The vial was covered with aluminium foil and frozen on dry ice-acetone. The vial consisted of 0.1 mg J1 and 0.2 mg sucrose. The vial with sample was thereafter freeze-dried overnight. Freeze-drying was performed on a Leybold Lyovac GT2 equipment.
A 5% glucose solution (100 ml) was prepared and the internal marker 3-methoxy-benzoic acid (0.8 mg/ml) was added to the solution.
0.5 ml of the glucose solution from step 2, was added to the freeze-dried vial with J1 sample from step 1. The vial was shaken at room temperature for 15 seconds and thereafter filtered and transferred to a glass vial for J1 concentration measurement, with HPLC. The amount of dissolved J1 was determined using HPLC and a calibration curve.

The next series concerns tumors. Conditions: even at lower concentrations than melphalan; cited from earlier work.
A short description of series [3]: Stability of previous preparation in DMA in a glucose solution. The format is physicochemical. To be noted: dissolved in DMA (dimethylacetamide) in a glucose solution. The source says:
In previous preparations, melphalan flufenamide was obtained from synthesis as a white powder in crystalline form. This crystalline form can only be dissolved in highly acidic aqueous solutions, which for practical manufacturing purposes is impossible. […] Therefore, previously melphalan flufenamide was instead dissolved in DMA (dimethylacetamide) in a glucose solution. The preparation is feasible but is unstable: 7% degradation/h. Furthermore, dimerization occurs and the solution turns bright yellow. This preparation was, however, unreliable and the polymerization rate varied in an unacceptable manner.

Setting [4] is: tert-butanol:water 1:1 (v/v), 1 mg/ml, room temperature, 5 days.

Where a name gives a salt, the structure may show the parent alone.

Regarding `CCOC(=O)[C@H](Cc1ccc(F)cc1)NC(=O)[C@@H](N)Cc1ccc(N(CCCl)CCCl)cc1` [Sample J1, melphalanyl-L-p-fluorophenylalanine ethyl ester hydrochloride], the “degradation compared with tert-butanol:water solution” value in series [1] (J1 dissolved in an acidic ethanol-water solution) is recorded as “much more rapid”. Moreover, in series [1] (setting [4]), the “amount of J1 by HPLC signal after 5 days” value is 85.5% and the “decrease of J1 HPLC signal” value was determined as 11.7%. Further, in series [1] (tert-butanol:water 1:1 (v/v), 1 mg/ml, room temperature, start), the “amount of J1 by HPLC signal, initial” value worked out at 97.2%. Further, in series [2] (room temperature), the “% of J1 dissolved in 15 seconds” value was “approximately 40%”. For the same compound, in series [2] (shaken at room temperature 15 seconds), the “concentration of J1 dissolved in the glucose solution during 15 seconds” value stood at 80 µg/mL.
For the compound `CCOC(=O)[C@H](Cc1ccc(F)cc1)NC(=O)[C@@H](N)Cc1ccc(N(CCCl)CCCl)cc1` [melphalan flufenamide, melphalanyl-L-p-fluorophenylalanine ethyl ester], the “cell killing activity against tumors” value with tumors is “increased cell killing activity”. For the same compound, the degradation in series [3] is on record as 7 % degradation/h.

Source of the values: patent US10285947B2, “Lyophilized preparations of melphalan flufenamide” (priority 2012, dated 2019).
